According to patent publication US11534438B2, “Composition containing piperacillin, pharmaceutical formulation thereof and use thereof” (priority 2017, dated 2022):
Like-named read-outs stand apart in the source and are kept apart here.

How the values were obtained:
A. baumannii = details: it is reported; cited from earlier work
[1] = test system: ATCC19606 (a standard strain of A. baumannii); assay: Animal protection experiment, mice infected with ATCC19606; type: in vivo, Acinetobacter baumannii; details: for ED50: Acinetobacter baumannii; for inhibitory effect on the standard strain of A. baumannii without drug resistance (in words): infected ICR mice, summary of Table 1
Method: (§1) Tested animals were ICR mice. Tested bacterial strains were ATCC19606 (a standard strain of A. baumannii), CBP-R (a carbapenem-resistant strain of A. baumannii), and CPZ/S-R (a cefoperazone-sulbactam-resistant strain of A. baumannii). Among them, the standard strain was obtained from ATCC, and the other strains were clinically isolated.
(§2) Determining the dose ranges of the tested samples: The tested strains were diluted with 5% high active dry yeast to obtain bacterial dilutions of different concentrations (10^−1, 10^−2, 10^−3, and 10^−4), and then intraperitoneally injected into the tested animals in 0.5 ml/mice. The number of dead mice after infection was recorded. The minimum bacterial dose, which kills 100% members of the mice, was recorded as 1 MLD. The mice were infected with 1 MLD of bacteria which was formulated with 5% high active dry yeast Immediately and 6 hours after the infection, a preliminary experiment was carried out with high, median and low dosages of the tested samples, and the survival numbers of the mice after infection were recorded. Based on the results of the preliminary experiment, the administration dosages of the tested samples were designed for the animal protection experiment.
(§3) Animal protection experiment: After fasting with water only for 18 h, the mice (half male and female, 25-30 g body weight) were randomly divided into: (1) ATCC19606 group, (2) CBP-R group, and (3) CPZ/S-R group. Each group was treated with five concentrations of the samples, and included 10 animals. In addition, 10 animals were incorporated as a control group. Each mouse was intraperitoneally injected with 0.5 ml of 1 MLD bacterial solution to establish an infection model. At 0 h and 6 h after infection, the mice were subcutaneously injected with different concentrations of the tested samples, 0.2 ml/mice, and the mice of the control group were injected with the same volume of sterilized water. The animals were observed continuously for 7 days, and the death of animals in each group was recorded. The 50% effective dose (ED50) of each tested sample was calculated by the Bliss method. Smaller ED50 means that the tested sample has better anti-bacterial effect in vivo, and better protective effect on the experimental animals.

[2] = test system: CBP-R (a carbapenem-resistant strain of A. baumannii); assay: Animal protection experiment, mice infected with CBP-R; type: in vivo, Acinetobacter baumannii; details: for ED50: Acinetobacter baumannii, read-out: ED50 for animals infected with A. baumannii, CBP-R a carbapenem-resistant A. baumannii; for inhibitory / anti-bacterial effect on drug-resistant strains of A. baumannii (in words): infected ICR mice, drug-resistant strains (CBP-R and CPZ/S-R), summary of Table 1
Method: as §1, §2, §3

[3] = test system: CPZ/S-R (a cefoperazone-sulbactam-resistant strain of A. baumannii); assay: Animal protection experiment, mice infected with CPZ/S-R; type: in vivo; details: Acinetobacter baumannii, read-out: ED50 for animals infected with A. baumannii, CPZ/S-R a cefoperazone-sulbactam resistant A. baumannii
Method: as §1
as §2, with “Based on the results of the preliminary experiment, the administration dosages of the tested samples were designed for the animal protection experiment.” left out
Animal protection experiment: After fasting with water only for 18 h, the mice (half male and female, 25-30 g body weight) were randomly divided into: (1) ATCC19606 group, (2) CBP-R group, and (3) CPZ/S-R group. […] The animals were observed continuously for 7 days, and the death of animals in each group was recorded. […]

[4] = ICR mice, 1 MLD i.p. infection, s.c. dosing at 0 h and 6 h, 7 days observation, Bliss method

| SMILES | resistance rate of A. baumannii (A. baumannii) | ED50 ([1]; ATCC19606, ICR mice, 1 MLD i.p. infection, s.c. dosing at 0 h and 6 h, 7 days observation, Bliss method, read-out: ED50 for animals infected with A. baumannii, ATCC19606 a standard strain) [mg/kg] | inhibitory effect on the standard strain of A. baumannii without drug resistance (in words) [1] | ED50 [2, 4] [mg/kg] | inhibitory / anti-bacterial effect on drug-resistant strains of A. baumannii (in words) [2] | ED50 [3, 4] [mg/kg] | ED50 ([1]; ATCC19606, read-out: ED50 for animals infected with A. baumannii, ATCC19606 a standard strain) [mg/kg] | ED50 [2] [mg/kg] | ED50 [3] [mg/kg] |
| --- | --- | --- | --- | --- | --- | --- | --- | --- | --- |
| CCN1CCN(C(=O)N[C@@H](C(=O)N[C@@H]2C(=O)N3[C@@H]2SC(C)(C)[C@@H]3C(=O)O)c2ccccc2)C(=O)C1=O [piperacillin] | over 70% | – | – | – | – | – | – | – | – |
| C[C@@H](O)[C@H]1C(=O)N2C(C(=O)O)=C(S[C@@H]3CN[C@H](C(=O)N(C)C)C3)[C@H](C)[C@H]12 [Meropenem] | – | < 20 | more advantageous in pharmaceutical efficacy | > 200 | significantly decreased inhibitory effect | 100 to 200 | – | – | – |
| CC1(C)[C@H](C(=O)O)N2C(=O)C[C@H]2S1(=O)=O [Sulbactam, (2S,5R)-3,3-dimethyl-7-oxo-4-thia-1-azabicyclo[3.2.0]heptane-2-carboxylic acid-4,4-dioxide] | – | – | more advantageous in pharmaceutical efficacy | – | significantly decreased inhibitory effect | – | < 20 | 100 to 200 | > 200 |
